A short description of the series: Thermo Scientific Hypersil GOLD aQ, 100 × 2.1 mm, 1.9 µm, 30 °C, 0.3 mL/min, estimated dead time 0.73 min; A: water + 0.01% formic acid + 4 mM ammonium formate; B: methanol + 0.01% formic acid + 4 mM ammonium formate; gradient (min/%B) 0/5 1/5 8/100 12/100. Particulars: stereoisomer not certain.
Take `CCOP(=S)(OCC)Oc1cc(C)nc(N(CC)CC)n1`: the LC retention time was 10.7 min.

As to `C=CCC1=C(C)C(OC(=O)C2C(C=C(C)C)C2(C)C)CC1=O` (stereo not given), the LC retention time is 10.8 min.

For `CC(C)=CC1C(C(=O)OCN2C(=O)C3=C(CCCC3)C2=O)C1(C)C` (stereo not given), the LC retention time was 10.7 min.

Regarding `CCOC1Oc2ccc(OS(C)(=O)=O)cc2C1(C)C` (stereo not given), the LC retention time is 9.42 min.

Regarding `CCOc1ccc(C(C)(C)COCc2cccc(Oc3ccccc3)c2)cc1`, the LC retention time is 11.7 min.

On to `CCOP(=S)(OCC)SCSP(=S)(OCC)OCC`, for which the LC retention time is 10.8 min.

For `CN(C)NC(=O)CCC(=O)O`, the LC retention time is 1.58 min.

Turning to `CCc1ccc(C(=O)NN(C(=O)c2cc(C)cc(C)c2)C(C)(C)C)cc1`, the LC retention time is 9.99 min.

As to `CCSC(=O)N(CC)C1CCCCC1`, the LC retention time is 10.6 min.

Regarding `COC(=O)Nc1cccc(OC(=O)Nc2cccc(C)c2)c1`, the LC retention time is 9.23 min.

Turning to `CC1=CC2OC3C(O)CC(C)(C34CO4)C2(CO)C(O)C1=O` (stereo not given), the LC retention time is 9.63 min.

`CCOP(=S)(OCC)SCn1nnc2ccccc2c1=O`: the LC retention time is 9.92 min.

As for `CCOP(=O)(NC(C)C)Oc1ccc(SC)c(C)c1` (stereo not given), the LC retention time was 9.99 min.

As to `COP(=S)(OC)SCN1C(=O)c2ccccc2C1=O`, the LC retention time was 9.39 min.

For the compound `CC1CCCC(=O)CCCC=Cc2cc(O)cc(O)c2C(=O)O1` (stereo not given), the LC retention time was 9.87 min.

Turning to `CC(C)OC(=O)Nc1ccccc1`, the LC retention time is 8.61 min.

For `CCOP(=S)(OCC)SCSCC`, the LC retention time is 8.44 min.

`CCCN(CCC)C(=O)SCc1ccccc1`: the LC retention time is 10.6 min.

In the case of `C=CC=CCC1=C(C)C(OC(=O)C2C(C=C(C)C(=O)OC)C2(C)C)CC1=O` (stereo not given), the LC retention time was 10.3 min.

Regarding `CNC(=O)Oc1cc(C)c(S(C)=O)c(C)c1` (stereo not given), the LC retention time is 7.09 min.

Turning to `CC(C)(C)C(O)C(Oc1ccc(-c2ccccc2)cc1)n1cncn1` (stereo not given), the LC retention time is 10.3 min.

`CNC(=O)ON=C(C)C(C)S(C)(=O)=O` (stereo not given): the LC retention time was 7.37 min.

`COC(=O)c1ccccc1S(=O)(=O)NC(=O)Nc1nc(C)nc(OC)n1`: the LC retention time was 8.43 min.

On to `CSc1nc(NC(C)C)nc(NC(C)C)n1`, for which the LC retention time was 9.65 min.

Take `CCNc1nc(NCC)nc(SC)n1`: the LC retention time is 8.62 min.

These data come from the RepoRT retention time repository (doi:10.1016/j.foodchem.2015.11.070).
